IC50 data for 62 compounds are collected here from patent publication US9718790B2, “Triazine derivative and pharmaceutical composition having an analgesic activity comprising the same” (SHIONOGI & CO., LTD., priority 2010, dated 2017).

In the assay the target is human P2X3 receptor (Homo sapiens (Human), UniProt P56373). Kind of assay: Evaluation of human P2X3 receptor inhibitory activity (Fluo-3 calcium fluorescence, FDSS 3000, ATP stimulation).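 Note: stimulus was 50 nM ATP with fluorescence followed for 3 min, and the response per well was peak post-ATP fluorescence divided by the reading at measurement start.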 Particulars: human P2X3 receptor, Test Example 1. Type of assay: cell-based.
Chain of human P2X3 receptor (P56373 whole entry): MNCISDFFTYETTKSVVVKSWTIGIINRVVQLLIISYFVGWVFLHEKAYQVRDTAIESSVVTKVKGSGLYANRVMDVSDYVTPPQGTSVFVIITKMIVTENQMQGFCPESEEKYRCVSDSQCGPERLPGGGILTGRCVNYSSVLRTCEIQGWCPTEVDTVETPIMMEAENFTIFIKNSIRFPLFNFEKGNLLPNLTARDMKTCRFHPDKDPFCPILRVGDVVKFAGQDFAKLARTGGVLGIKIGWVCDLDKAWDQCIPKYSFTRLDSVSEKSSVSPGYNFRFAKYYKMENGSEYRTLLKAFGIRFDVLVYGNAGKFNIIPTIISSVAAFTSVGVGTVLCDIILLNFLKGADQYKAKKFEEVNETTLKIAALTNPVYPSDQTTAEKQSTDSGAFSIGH

The term IC50 denotes the concentration that gives 50% inhibition.

For `COCCn1c(=O)[nH]/c(=N\c2ccc(Oc3ccnc(C(=O)O)c3)cc2)n(Cc2ccc(Cl)cc2)c1=O` [Compound I-2552], the IC50 came to 5 nM.

Regarding `CCn1c(=O)[nH]/c(=N\c2ccc(Oc3cccc(C(=O)O)n3)cc2)n(Cc2ncc(Cl)cn2)c1=O` [Compound I-2553], the IC50 came out at 216 nM.

Take `CCn1c(=O)[nH]/c(=N\c2ccc(Oc3ccnc(NCC(N)=O)c3)cc2)n(Cc2ccc(Cl)cc2)c1=O` [Compound I-2554]: the IC50 worked out at 7 nM.

On to `CCn1c(=O)[nH]/c(=N\c2ccc(Oc3ccnc(NCC(=O)NC)c3)cc2)n(Cc2ccc(Cl)cc2)c1=O` [Compound I-2555], for which the IC50 amounted to 16 nM.

For the compound `CCn1c(=O)[nH]/c(=N\c2ccc(Oc3ccnc(NCC(=O)O)c3)cc2)n(Cc2ccc(Cl)cc2)c1=O` [Compound I-2556], the IC50 came to 5 nM.

In the case of `O=C(O)CCn1c(=O)[nH]/c(=N\c2ccc(Oc3ncccn3)cc2)n(Cc2ccc(Cl)cc2)c1=O` [Compound I-2557], the IC50 came out at 19 nM.

Turning to `Cc1ccc(Cn2c(=O)n(CCC(=O)O)c(=O)[nH]/c2=N\c2ccc(Oc3ncccn3)cc2)cc1` [Compound I-2558], the IC50 is 22 nM.

For the compound `NC(=O)c1ccc(Oc2ccc(/N=c3\[nH]c(=O)n(CCO)c(=O)n3Cc3ccc(Cl)cc3)cc2)cc1` [Compound I-2559], the IC50 worked out at 8 nM.

Take `N#Cc1ccc(Oc2ccc(/N=c3\[nH]c(=O)n(C[C@@H](O)CO)c(=O)n3Cc3ccc(Cl)cc3)cc2)cc1` [Compound I-2560]: the IC50 was determined as 5 nM.

With `CCOC(=O)Cn1c(=O)[nH]/c(=N\c2ccc(Oc3cccc(F)n3)cc2)n(Cc2ccc(Cl)cc2)c1=O` [Compound I-2562], the IC50 was 4 nM.

As to `O=c1[nH]/c(=N\c2ccc(Oc3ccsn3)cc2)n(Cc2ccc(Cl)cc2)c(=O)n1CCO` [Compound I-2563], the IC50 amounted to 15 nM.

As for `O=C(O)Cn1c(=O)[nH]/c(=N\c2ccc(Oc3cccc(F)n3)cc2)n(Cc2ccc(Cl)cc2)c1=O` [Compound I-2564], the IC50 is 269 nM.

Consider `NC(=O)CCn1c(=O)[nH]/c(=N\c2ccc(Oc3ncccn3)cc2)n(Cc2ccc(Cl)cc2)c1=O` [Compound I-2565], for which the IC50 is 17 nM.

On to `Cc1ccc(Cn2c(=O)n(CCC(N)=O)c(=O)[nH]/c2=N\c2ccc(Oc3ncccn3)cc2)cc1` [Compound I-2566], for which the IC50 came out at 17 nM.

For the compound `CCn1c(=O)[nH]/c(=N\c2ccc(Oc3ncc(C(=O)O)s3)cc2)n(Cc2ccc(F)cc2)c1=O` [Compound I-2567], the 50% inhibitory concentration (IC50) came to 38 nM.

As to `CCn1c(=O)[nH]/c(=N\c2ccc(Oc3nc(C(=O)O)cs3)cc2)n(Cc2ccc(F)cc2)c1=O` [Compound I-2568], the IC50 came out at 87 nM.

Take `CCn1c(=O)[nH]/c(=N\c2ccc(Nc3ccncc3)cc2)n(Cc2ccc(C)cc2)c1=O` [Compound I-2569]: the IC50 came to 162 nM.

Take `CCOC(=O)Cn1c(=O)[nH]/c(=N\c2ccc(Oc3nc(C)ns3)cc2)n(Cc2ccc(Cl)cc2)c1=O` [Compound I-2570]: the IC50 is 5 nM.

With `Cc1nsc(Oc2ccc(/N=c3\[nH]c(=O)n(CC(C)(CO)CO)c(=O)n3Cc3ccc(F)cc3)cc2)n1` [Compound I-2571], the IC50 worked out at 7 nM.

On to `CCn1c(=O)[nH]/c(=N\c2ccc(Oc3ccncc3)cc2)n(Cc2ccc(C)cc2)c1=O` [Compound I-2573], for which the IC50 was 6 nM.

With `CC(CO)(CO)Cn1c(=O)[nH]/c(=N\c2ccc(Oc3ccon3)c(F)c2)n(Cc2ccc(F)cc2)c1=O` [Compound I-2574], the concentration for half-maximal inhibition (IC50) stood at 11 nM.

In the case of `Cc1nsc(Oc2ccc(/N=c3\[nH]c(=O)n(CCO)c(=O)n3Cc3ccc(Cl)cc3)cc2)n1` [Compound I-2575], the IC50 is 6 nM.

As to `Cc1nsc(Oc2ccc(/N=c3\[nH]c(=O)n(CC(C)(CO)CO)c(=O)n3Cc3ccc(Cl)cc3)cc2)n1` [Compound I-2576], the IC50 amounted to 3 nM.

Consider `Cc1nsc(Oc2ccc(/N=c3\[nH]c(=O)n(C[C@@H](O)CO)c(=O)n3Cc3ccc(Cl)cc3)cc2)n1` [Compound I-2577], for which the IC50 amounted to 8 nM.

Consider `CCOC(=O)Cn1c(=O)[nH]/c(=N\c2ccc(Oc3ccon3)c(F)c2)n(Cc2ccc(Cl)cc2)c1=O` [Compound I-2578], for which the IC50 was determined as 6 nM.

As to `Cc1nsc(Oc2ccc(/N=c3\[nH]c(=O)n(CC(=O)O)c(=O)n3Cc3ccc(Cl)cc3)cc2)n1` [Compound I-2579], the IC50 was 71 nM.

Regarding `O=C(O)Cn1c(=O)[nH]/c(=N\c2ccc(Oc3ccon3)c(F)c2)n(Cc2ccc(Cl)cc2)c1=O` [Compound I-2580], the IC50 was found to be 204 nM.

With `CNC(=O)Cn1c(=O)[nH]/c(=N\c2ccc(Oc3nc(C)ns3)cc2)n(Cc2ccc(Cl)cc2)c1=O` [Compound I-2581], the IC50 was 5 nM.

Consider `O=c1[nH]/c(=N\c2ccc(Oc3cccc(F)n3)cc2)n(Cc2ccc(Cl)cc2)c(=O)n1CC(CO)CO` [Compound I-2582], for which the 50% inhibitory concentration (IC50) stood at 3 nM.

As for `O=c1[nH]/c(=N\c2ccc(Oc3cccc(F)n3)cc2)n(Cc2ccc(F)cc2)c(=O)n1CC(CO)CO` [Compound I-2583], the IC50 was 15 nM.

Turning to `NC(=O)Cn1c(=O)[nH]/c(=N\c2ccc(Oc3cccc(F)n3)cc2)n(Cc2ccc(Cl)cc2)c1=O` [Compound I-2584], the IC50 worked out at 8 nM.

As to `CNC(=O)Cn1c(=O)[nH]/c(=N\c2ccc(Oc3cccc(F)n3)cc2)n(Cc2ccc(Cl)cc2)c1=O` [Compound I-2585], the IC50 stood at 8 nM.

Turning to `NC(=O)Cn1c(=O)[nH]/c(=N\c2ccc(Oc3ccon3)c(F)c2)n(Cc2ccc(Cl)cc2)c1=O` [Compound I-2586], the IC50 was 7 nM.

On to `CNC(=O)Cn1c(=O)[nH]/c(=N\c2ccc(Oc3ccon3)c(F)c2)n(Cc2ccc(Cl)cc2)c1=O` [Compound I-2587], for which the IC50 amounted to 7 nM.

Turning to `CCn1c(=O)[nH]/c(=N\c2ccc(Oc3ccnc(NCCO)c3)cc2)n(Cc2ccc(Cl)cc2)c1=O` [Compound I-2588], the IC50 amounted to 11 nM.

For the compound `Cc1nsc(Oc2ccc(/N=c3\[nH]c(=O)n(CC(N)=O)c(=O)n3Cc3ccc(Cl)cc3)cc2)n1` [Compound I-2589], the IC50 is 6 nM.

On to `CNC(=O)Cn1c(=O)[nH]/c(=N\c2ccc(Oc3ccon3)cc2)n(Cc2ccc(Cl)cc2)c1=O` [Compound I-2590], for which the half-maximal inhibitory concentration (IC50) was determined as 17 nM.

Consider `CCn1c(=O)[nH]/c(=N\c2cccc(Oc3cccc(C#N)n3)c2)n(Cc2ccc(Cl)cc2)c1=O` [Compound I-2591], for which the IC50 was determined as 51 nM.

Regarding `CCn1c(=O)[nH]/c(=N\c2cccc(Oc3cccc(C(=O)O)n3)c2)n(Cc2ccc(Cl)cc2)c1=O` [Compound I-2592], the IC50 was 350 nM.

Turning to `CCn1c(=O)[nH]/c(=N\c2ccc(Oc3cccc(C(=O)NC#N)n3)cc2)n(Cc2ccc(Cl)cc2)c1=O` [Compound I-2593], the IC50 worked out at 1 nM.

In the case of `O=c1[nH]/c(=N\c2ccc(Oc3noc(C4CC4)n3)cc2)n(Cc2ccc(Cl)cc2)c(=O)n1CC(CO)CO` [Compound I-2595], the IC50 stood at 27 nM.

As for `O=c1[nH]/c(=N\c2ccc(Oc3noc(C4CC4)n3)cc2)n(Cc2ccc(Cl)cc2)c(=O)n1C[C@H](O)CO` [Compound I-2596], the IC50 turned out to be 51 nM.

Consider `CCn1c(=O)[nH]/c(=N\c2ccc(Sc3ccc(C(=O)OC)cc3)cc2)n(Cc2ccc(Cl)cc2)c1=O` [Compound I-2597], for which the IC50 stood at 215 nM.

For the compound `CCn1c(=O)[nH]/c(=N\c2ccc(Sc3nc[nH]n3)cc2)n(Cc2ccc(Cl)cc2)c1=O` [Compound I-2598], the IC50 was found to be 341 nM.

For the compound `CCn1c(=O)[nH]/c(=N\c2ccc(Oc3ccnnc3)cc2)n(Cc2ccc(C)cc2)c1=O` [Compound I-2599], the IC50 came out at 4 nM.

With `CCn1c(=O)[nH]/c(=N\c2ccc(Oc3ccnnc3)cc2)n(Cc2ccc(Cl)cc2)c1=O` [Compound I-2600], the half-maximal inhibitory concentration (IC50) was determined as 4 nM.

As for `CCn1c(=O)[nH]/c(=N\c2ccc(Oc3ccc(C#N)nn3)cc2)n(Cc2ccc(Cl)cc2)c1=O` [Compound I-2601], the IC50 is 12 nM.

Turning to `CCn1c(=O)[nH]/c(=N\c2ccc(Oc3cccc(-c4nnn[nH]4)n3)cc2)n(Cc2ccc(Cl)cc2)c1=O` [Compound I-2602], the IC50 is 2 nM.

As to `CCn1c(=O)[nH]/c(=N\c2ccc(Sc3ccc(C(=O)O)cc3)cc2)n(Cc2ccc(Cl)cc2)c1=O` [Compound I-2603], the IC50 is 125 nM.

Regarding `N#CNC(=O)Cn1c(=O)[nH]/c(=N\c2ccc(Oc3ccon3)cc2)n(Cc2ccc(Cl)cc2)c1=O` [Compound I-2604], the 50% inhibitory concentration (IC50) worked out at 21 nM.

On to `Cc1nsc(Oc2ccc(/N=c3\[nH]c(=O)n(CC(CO)CO)c(=O)n3Cc3ccc(F)cc3)cc2)n1` [Compound I-2605], for which the concentration for half-maximal inhibition (IC50) came to 14 nM.

For `Cc1nsc(Oc2ccc(/N=c3\[nH]c(=O)n(CCCO)c(=O)n3Cc3ccc(F)cc3)cc2)n1` [Compound I-2606], the IC50 amounted to 14 nM.

Consider `Cc1nsc(Oc2ccc(/N=c3\[nH]c(=O)n(C[C@H](O)CO)c(=O)n3Cc3ccc(F)cc3)cc2)n1` [Compound I-2607], for which the 50% inhibitory concentration (IC50) came to 20 nM.

With `CCn1c(=O)[nH]/c(=N\c2ccc(Oc3nc(C(N)=O)cs3)cc2)n(Cc2ccc(Cl)cc2)c1=O` [Compound I-2608], the IC50 was determined as 6 nM.

As for `CCn1c(=O)[nH]/c(=N\c2ccc(Oc3ncc(C(N)=O)s3)cc2)n(Cc2ccc(Cl)cc2)c1=O` [Compound I-2609], the half-inhibitory concentration (IC50) was 2 nM.

Consider `Cc1cccc(Oc2ccc(/N=c3\[nH]c(=O)n(CC(CO)CO)c(=O)n3Cc3ccc(Cl)cc3)cc2)n1` [Compound I-2610], for which the IC50 came out at 12 nM.

For the compound `CCn1c(=O)[nH]/c(=N\c2ccc(Oc3cccnn3)cc2)n(Cc2ccc(Cl)cc2)c1=O` [Compound I-2611], the IC50 was 14 nM.

Regarding `CCn1c(=O)[nH]/c(=N\c2ccc(Oc3ccc(C#N)cc3)nc2)n(Cc2ccc(Cl)cc2)c1=O` [Compound I-2613], the IC50 worked out at 137 nM.

Turning to `CCOC(=O)CNc1ccc(Oc2ccc(/N=c3\[nH]c(=O)n(CC)c(=O)n3Cc3ccc(Cl)cc3)cc2)cn1` [Compound I-2614], the IC50 worked out at 27 nM.

`CC1(Cn2c(=O)[nH]/c(=N\c3ccc(OCC4CC4)cc3)n(Cc3ccc(Cl)cc3)c2=O)COC(C)(C)OC1` [Compound I-2615]: the IC50 is 7 nM.

Regarding `CC(CO)(CO)Cn1c(=O)[nH]/c(=N\c2ccc(OCC3CC3)cc2)n(Cc2ccc(Cl)cc2)c1=O` [Compound I-2616], the IC50 worked out at 12 nM.

`CC(CO)(CO)Cn1c(=O)[nH]/c(=N\c2ccc(OCC3CC3)cc2)n(Cc2ccc(F)cc2)c1=O` [Compound I-2617]: the IC50 was 42 nM.
